Laboratory results: patent publication US10597388B2, “Pyridazinone herbicides” (FMC CORPORATION, priority 2014, dated 2020)

What was measured:
Assay type in all cases: in vivo
[1] = system: galium (catchweed bedstraw, Galium aparine); experiment: Test A greenhouse herbicide test, postemergence
How it was run: (§1)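 Visual injury score, 0 (no effect) to 100 (complete control), versus untreated controls roughly 10 d after postemergence spray; plants at one- to two-leaf stage, 2 to 10 cm tall, in loam soil and sand, kept in greenhouse.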

[2] = system: blackgrass (Alopecurus myosuroides); experiment: Test A greenhouse herbicide test, postemergence
How it was run: as §1

[3] = system: foxtail, giant (giant foxtail, Setaria faberii); experiment: Test A greenhouse herbicide test, pre- and postemergence
How it was run: (§2)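 Seeds in loam–sand blend received a preemergence directed soil spray; plants at 2–10 cm, one- to two-leaf stage, received postemergence sprays. Compounds in a non-phytotoxic solvent with surfactant. After about 10 d in a greenhouse, injury rated visually versus untreated controls on a 0–100 scale (100 = complete control).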

[4] = system: barnyardgrass (Echinochloa crus-galli); experiment: as above
How it was run: as §2

[5] = system: wheat (Triticum aestivum); experiment: as above; conditions: Postemergence
How it was run: as §2

kochia (Kochia scoparia) = experiment: as above
How it was run: as §2

[6] = system: pigweed (Amaranthus retroflexus); experiment: as above
How it was run: as §2

[7] = system: ragweed (common ragweed, Ambrosia elatior); experiment: as above
How it was run: as §2

[8] = system: ryegrass, Italian (Italian ryegrass, Lolium multiflorum); experiment: as above
How it was run: as §2

corn (Zea mays) = experiment: Test C greenhouse herbicide test, pre- and postemergence
How it was run: (§3)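 Visual ratings on a 0 to 100 scale (0 = no effect, 100 = complete control) versus untreated controls, scored 13–15 d after treatment. Soil-applied preemergence to seeded loam/sand; foliar postemergence to 1- to 4-leaf plants (2–18 cm) in peat-vermiculite mix; compounds formulated in solvent plus surfactant.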

[9] = system: ryegrass, Italian (Italian ryegrass, Lolium multiflorum); experiment: as above
How it was run: as §3

[10] = 125 g ai/ha, 0 to 100 scale where 0 is no effect and 100 is complete control
[11] = 500 g ai/ha, visual rating after approx. 10 d, 0 to 100 scale (0 no effect, 100 complete control)
[12] = Postemergence, 125 g ai/ha, 0 to 100 scale where 0 is no effect and 100 is complete control
[13] = Postemergence, 500 g ai/ha, visual rating after approx. 10 d, 0 to 100 scale (0 no effect, 100 complete control)
[14] = Preemergence, 125 g ai/ha, 0 to 100 scale where 0 is no effect and 100 is complete control
[15] = Preemergence, 500 g ai/ha, 0 to 100 scale where 0 is no effect and 100 is complete control
[16] = Postemergence, 31 g ai/ha, scale 0 to 100 (0 no effect, 100 complete control)
[17] = Postemergence, 125 g ai/ha, scale 0 to 100, 0 is no effect, 100 is complete control
[18] = Postemergence, 250 g ai/ha, scale 0 to 100, 0 no effect, 100 complete control, 13 to 15 d
[19] = Preemergence, 31 g ai/ha, scale 0 to 100, 0 is no effect, 100 is complete control
[20] = Preemergence, 62 g ai/ha, scale 0 to 100, 0 is no effect, 100 is complete control
[21] = Preemergence, 125 g ai/ha, scale 0 to 100, 0 is no effect, 100 is complete control
[22] = Preemergence, 250 g ai/ha, scale 0 to 100 (0 no effect, 100 complete control)
[23] = postemergence, 62 g ai/ha, scale 0 to 100, 0 no effect, 100 complete control

CCC(=O)Oc1c(C)nn(C)c(=O)c1-c1c(C)sc2ccc(Cl)cc12 [Compound 109]
Plant response rating, Galium [1, 10]: 100 | Plant response rating, Galium [1, 11]: 100 | Plant response rating, Blackgrass [2, 10]: 80 | Blackgrass plant response rating ([2]; 500 g ai/ha, 0 to 100 scale, 0 is no effect, 100 is complete control): 90 | Plant response rating, Foxtail, Giant [3, 12]: 70 | Plant response rating, Foxtail, Giant [3, 13]: 90 | Foxtail, Giant plant response rating [3, 14]: 90 | Plant response rating, Foxtail, Giant [3, 15]: 100 | Plant response rating, Barnyardgrass [4, 12]: 30 | Barnyardgrass plant response rating ([4]; Postemergence, 500 g ai/ha, 0 to 100 scale, 0 is no effect, 100 is complete control): 90 | Barnyardgrass plant response rating [4, 14]: 20 | Plant response rating, Barnyardgrass [4, 15]: 100 | Plant response rating, Wheat [5, 10]: 20 | Plant response rating, Wheat [5, 11]: 30 | Plant response rating, Kochia (kochia (Kochia scoparia); [12]): 90 | Plant response rating, Kochia (kochia (Kochia scoparia); [13]): 90 | Kochia plant response rating (kochia (Kochia scoparia); [14]): 100 | Plant response rating, Kochia (kochia (Kochia scoparia); [15]): 100 | Plant response rating, Pigweed [6, 12]: 90 | Plant response rating, Pigweed [6, 13]: 90 | Pigweed plant response rating [6, 14]: 100 | Plant response rating, Pigweed [6, 15]: 100 | Plant response rating, Ragweed [7, 12]: 80 | Plant response rating, Ragweed [7, 13]: 100 | Ragweed plant response rating [7, 14]: 100 | Plant response rating, Ragweed [7, 15]: 100 | Plant response rating, Ryegrass, Italian [8, 12]: 100 | Plant response rating, Ryegrass, Italian [8, 13]: 100 | Ryegrass, Italian plant response rating [8, 14]: 100 | Plant response rating, Ryegrass, Italian [8, 15]: 100 | Plant response rating, Corn (corn (Zea mays); [16]): 0 | Plant response rating, Corn (corn (Zea mays); [17]): 35 | Plant response rating, Corn (corn (Zea mays); [18]): 50 | Plant response rating, Corn (corn (Zea mays); [19]): 5 | Plant response rating, Corn (corn (Zea mays); [20]): 0 | Plant response rating, Corn (corn (Zea mays); [21]): 0 | Corn plant response rating (corn (Zea mays); [22]): 0 | Corn plant response rating (corn (Zea mays); [23]): 15 | Plant response rating, Ryegrass, Italian [9, 16]: 90 | Plant response rating, Ryegrass, Italian [9, 17]: 90 | Plant response rating, Ryegrass, Italian [9, 18]: 90 | Plant response rating, Ryegrass, Italian [9, 19]: 70 | Plant response rating, Ryegrass, Italian [9, 20]: 90 | Plant response rating, Ryegrass, Italian [9, 21]: 90 | Ryegrass, Italian plant response rating [9, 22]: 95

CCC(=O)Oc1c(Cl)nn(C)c(=O)c1-c1c(C)sc2ccc(Cl)cc12 [Compound 111]
Plant response rating, Galium [1, 10]: 90 | Plant response rating, Galium [1, 11]: 100 | Plant response rating, Blackgrass [2, 10]: 30 | Plant response rating, Blackgrass [2, 11]: 70 | Plant response rating, Foxtail, Giant [3, 12]: 70 | Plant response rating, Foxtail, Giant [3, 13]: 100 | Foxtail, Giant plant response rating [3, 14]: 80 | Plant response rating, Foxtail, Giant [3, 15]: 100 | Plant response rating, Barnyardgrass [4, 12]: 40 | Plant response rating, Barnyardgrass [4, 13]: 90 | Barnyardgrass plant response rating [4, 14]: 70 | Plant response rating, Barnyardgrass [4, 15]: 100 | Plant response rating, Wheat [5, 10]: 20 | Plant response rating, Wheat [5, 11]: 30 | Plant response rating, Kochia (kochia (Kochia scoparia); [12]): 40 | Plant response rating, Kochia (kochia (Kochia scoparia); [13]): 90 | Kochia plant response rating (kochia (Kochia scoparia); [14]): 60 | Plant response rating, Kochia (kochia (Kochia scoparia); [15]): 100 | Plant response rating, Pigweed [6, 12]: 100 | Plant response rating, Pigweed [6, 13]: 100 | Pigweed plant response rating [6, 14]: 90 | Plant response rating, Pigweed [6, 15]: 100 | Plant response rating, Ragweed [7, 12]: 70 | Plant response rating, Ragweed [7, 13]: 100 | Ragweed plant response rating [7, 14]: 80 | Plant response rating, Ragweed [7, 15]: 90 | Plant response rating, Ryegrass, Italian [8, 12]: 90 | Plant response rating, Ryegrass, Italian [8, 13]: 100 | Ryegrass, Italian plant response rating [8, 14]: 90 | Plant response rating, Ryegrass, Italian [8, 15]: 100 | Plant response rating, Corn (corn (Zea mays); [16]): 5 | Plant response rating, Corn (corn (Zea mays); [17]): 15 | Plant response rating, Corn (corn (Zea mays); [18]): 10 | Plant response rating, Corn (corn (Zea mays); [19]): 0 | Plant response rating, Corn (corn (Zea mays); [20]): 0 | Plant response rating, Corn (corn (Zea mays); [21]): 0 | Corn plant response rating (corn (Zea mays); [22]): 15 | Corn plant response rating (corn (Zea mays); [23]): 10 | Plant response rating, Ryegrass, Italian [9, 16]: 85 | Plant response rating, Ryegrass, Italian [9, 17]: 95 | Plant response rating, Ryegrass, Italian [9, 18]: 95 | Plant response rating, Ryegrass, Italian [9, 19]: 10 | Plant response rating, Ryegrass, Italian [9, 20]: 90 | Plant response rating, Ryegrass, Italian [9, 21]: 85 | Ryegrass, Italian plant response rating [9, 22]: 95

Cc1sc2ccc(Cl)cc2c1-c1c(OS(C)(=O)=O)c(Cl)nn(C)c1=O [Compound 114]
Plant response rating, Galium [1, 10]: 90 | Plant response rating, Galium [1, 11]: 100 | Plant response rating, Blackgrass [2, 10]: 20 | Plant response rating, Blackgrass [2, 11]: 60 | Plant response rating, Foxtail, Giant [3, 12]: 70 | Plant response rating, Foxtail, Giant [3, 13]: 90 | Foxtail, Giant plant response rating [3, 14]: 40 | Plant response rating, Foxtail, Giant [3, 15]: 90 | Plant response rating, Barnyardgrass [4, 12]: 20 | Plant response rating, Barnyardgrass [4, 13]: 90 | Barnyardgrass plant response rating [4, 14]: 30 | Plant response rating, Barnyardgrass [4, 15]: 80 | Plant response rating, Wheat [5, 10]: 20 | Plant response rating, Wheat [5, 11]: 40 | Plant response rating, Kochia (kochia (Kochia scoparia); [12]): 30 | Plant response rating, Kochia (kochia (Kochia scoparia); [13]): 60 | Kochia plant response rating (kochia (Kochia scoparia); [14]): 30 | Plant response rating, Kochia (kochia (Kochia scoparia); [15]): 100 | Plant response rating, Pigweed [6, 12]: 90 | Plant response rating, Pigweed [6, 13]: 90 | Pigweed plant response rating [6, 14]: 100 | Plant response rating, Pigweed [6, 15]: 100 | Plant response rating, Ragweed [7, 12]: 70 | Plant response rating, Ragweed [7, 13]: 80 | Ragweed plant response rating [7, 14]: 80 | Plant response rating, Ragweed [7, 15]: 90 | Plant response rating, Ryegrass, Italian [8, 12]: 90 | Plant response rating, Ryegrass, Italian [8, 13]: 90 | Ryegrass, Italian plant response rating [8, 14]: 80 | Plant response rating, Ryegrass, Italian [8, 15]: 90 | Plant response rating, Corn (corn (Zea mays); [16]): 0 | Plant response rating, Corn (corn (Zea mays); [17]): 0 | Plant response rating, Corn (corn (Zea mays); [18]): 0 | Plant response rating, Corn (corn (Zea mays); [19]): 0 | Plant response rating, Corn (corn (Zea mays); [20]): 5 | Plant response rating, Corn (corn (Zea mays); [21]): 5 | Corn plant response rating (corn (Zea mays); [22]): 5 | Corn plant response rating (corn (Zea mays); [23]): 0 | Plant response rating, Ryegrass, Italian [9, 16]: 60 | Plant response rating, Ryegrass, Italian [9, 17]: 80 | Plant response rating, Ryegrass, Italian [9, 18]: 95 | Plant response rating, Ryegrass, Italian [9, 19]: 40 | Plant response rating, Ryegrass, Italian [9, 20]: 85 | Plant response rating, Ryegrass, Italian [9, 21]: 90 | Ryegrass, Italian plant response rating [9, 22]: 95

Cc1nn(C)c(=O)c(-c2cc(F)cc3ccccc23)c1OS(C)(=O)=O [Compound 115]
Plant response rating, Galium [1, 10]: 80 | Plant response rating, Galium [1, 11]: 100 | Plant response rating, Blackgrass [2, 10]: 20 | Plant response rating, Blackgrass [2, 11]: 70 | Plant response rating, Foxtail, Giant [3, 12]: 20 | Plant response rating, Foxtail, Giant [3, 13]: 90 | Foxtail, Giant plant response rating [3, 14]: 30 | Plant response rating, Foxtail, Giant [3, 15]: 50 | Plant response rating, Barnyardgrass [4, 12]: 20 | Plant response rating, Barnyardgrass [4, 13]: 90 | Barnyardgrass plant response rating [4, 14]: 10 | Plant response rating, Barnyardgrass [4, 15]: 50 | Plant response rating, Wheat [5, 10]: 20 | Plant response rating, Wheat [5, 11]: 30 | Plant response rating, Kochia (kochia (Kochia scoparia); [12]): 70 | Plant response rating, Kochia (kochia (Kochia scoparia); [13]): 90 | Kochia plant response rating (kochia (Kochia scoparia); [14]): 30 | Plant response rating, Kochia (kochia (Kochia scoparia); [15]): 90 | Plant response rating, Pigweed [6, 12]: 70 | Plant response rating, Pigweed [6, 13]: 90 | Pigweed plant response rating [6, 14]: 70 | Plant response rating, Pigweed [6, 15]: 100 | Plant response rating, Ragweed [7, 12]: 80 | Plant response rating, Ragweed [7, 13]: 100 | Ragweed plant response rating [7, 14]: 40 | Plant response rating, Ragweed [7, 15]: 90 | Plant response rating, Ryegrass, Italian [8, 12]: 100 | Plant response rating, Ryegrass, Italian [8, 13]: 100 | Ryegrass, Italian plant response rating [8, 14]: 100 | Plant response rating, Ryegrass, Italian [8, 15]: 100 | Plant response rating, Corn (corn (Zea mays); [16]): 5 | Plant response rating, Corn (corn (Zea mays); [17]): 5 | Plant response rating, Corn (corn (Zea mays); [18]): 15 | Corn plant response rating (corn (Zea mays); [23]): 5 | Plant response rating, Ryegrass, Italian [9, 16]: 90 | Plant response rating, Ryegrass, Italian [9, 17]: 95 | Plant response rating, Ryegrass, Italian [9, 18]: 95
